# According to patent publication US6361995B1, “Protection of pancreatic β-cells during islet isolation and assessment of islet viability and candidate diabetes drugs after islet isolation” (NAB Research Foundation, priority 1999, dated 2002):
# Legend:
# β-cells = details: 50-100 mg/kg administered to a rat; development of diabetes; cited from earlier work
# β-TC3 cells = assay: Protein O-glycosylation in β-TC3 cells (RL2 immunoprecipitation and Western blotting); format: cell-based; details: 5 mM, 60 min after 30 min in 0 mM glucose (FIG. 8)
# Method: β-TC3 cells (passage 37) were obtained form the University of Pennsylvania Diabetes Center from Dr. D. Hanahan (University of California, San Francisco). β-TC3 cells were cultured in 10-cm dishes in the presence of RPMI 1640 medium supplemented with 10% fetal bovine serum, penicillin (75 μg/ml), streptomycin (50 μg/ml), and 2 mM L-glutamine. Cells were trypsinized and subcloned weekly. Media were changed twice weekly and on the day prior to an experiment, and insulin responsiveness to glucose and carbachol was routinely monitored. Cells were used between passages 38 and 55.
# β-TC3 cells in 10-cm dishes were washed three times in Krebs'-HEPES buffer (25 mM HEPES, pH 7.40, 115 mM NaCl, 24 mM NaHCO3, 5 mM KCl, 2.5 mM CaCl2, 1 mM MgCl2) supplemented with 0.1% bovine serum albumin and 1 mM L-glutamine. Cells were pre-incubated in 5 ml of the same buffer for 30 min at 37° C. under an atmosphere of 95% air/5% CO2. After 30 min, the pre-incubation buffer was aspirated and cells were incubated at 37° C. under an atmosphere of 95% air/5% CO2 with 5 ml of Krebs'-HEPES buffer supplemented with the appropriate secretagogue. At the end of the incubation period, supernatant was removed for insulin radioimmunoassay. Cells left in the dishes were processed for subsequent immunoprecipitation as described below.
# At the end of the experiment, all supernatant was removed from the tubes or dishes. […]
# isolated islets = assay: Insulin secretion from isolated islets (radioimmunoassay); format: cell-based, rat; details: for Insulin (secretion in isolated islets): islets isolated in 11 mM glucose and 1 mM L-glutamine
# Method: (§1) In a typical experiment, islets were isolated aseptically from 3-4 male Sprague-Dawley rats. During surgery, the common bile duct of each pancreas was cannulated, and the pancreas was inflated with 20 ml of Hank's Balanced Salt Solution (HBSS). The distended pancreas was excised, and lymph nodes, fat, blood vessels, and bile ducts were removed under a stereo dissecting microscope. Tissue was chopped extensively and rinsed 5-6 times with HBSS. The tissue was digested with collagenase P (3 mg/ml tissue) at 37° C. for 3-4 min using a wrist action shaker. Digested tissue was rinsed 3-4 times with HBSS, and islets were purified on a discontinuous Ficoll gradient consisting of 27%, 23%, 20.5%, and 11% Ficoll in (25 mM) HEPES-HBSS buffer. Islets were harvested from the gradient and washed once with HBSS. Islets were washed 6 times in DMEM supplemented with 25 mM HEPES pH 7.40, 25 mM NaHCO3, 0.1% bovine serum albumin, 3 mM glucose, and 1 mM L-glutamine (complete DMEM). This isolation procedure typically provided 300-400 islets per rat, which were then used as described below. In selected experiments, islets were isolated as described above, except that all isolation buffers were supplemented t o contain 11 mM glucose and 1 mM L-glutamine.
# (§2) Freshly isolated islets were placed into siliconized 16×100-mm round bottom, screw-cap tubes and pre-incubated for 30 min in 1 ml of complete DMEM. For each experiment, 100 islets were placed into each tube. Pre-incubation and all subsequent incubations were performed at 37° C. under an atmosphere of 95% O2/5% CO2. After 30 min, pre-incubation buffer was aspirated, and islets were incubated with complete DMEM supplemented with the appropriate secretagogue. At the end of the incubation period, the entire supernatant was removed for insulin radioimmunoassay. Islets were processed for subsequent immunoprecipitation as described below. For each experiment, insulin secretion in the control sample was set at 100% and all other results were expressed as percentages of control.
# Films were photographed using a Sony digital camera, and intensities of bands present on films were quantitated using the program NIH Image. All results are expressed as the mean±SEM, using the Windows-compatible version 2.98 of the program FigP (Biosoft, St. Louis, Mo.). Statistical analysis was performed using the same program. Data were analyzed by one-way analysis of variance followed by multiple comparisons between the means using the least significant difference test. A probability of p<0.05 was considered to indicate statistical significance.
# [1] = tested on: p135 (135 kD O-glycosylated protein) in isolated islets; assay: p135 O-glycosylation in isolated islets (RL2 immunoprecipitation and Western blotting); format: cell-based, rat; details: for increase in p135 O-glycosylation: 5 mM, 60 min, islets isolated in 11 mM glucose and 1 mM L-glutamine; for effect on glucose-induced p135 O-glycosylation: 100 μM DON with 28 mM glucose
# Method: as §1, §2
# At the end of the experiment, all supernatant was removed from the tubes or dishes. One ml of ice-cold lysis buffer (50 mM HEPES, pH 7.40, 150 mM NaCl, 1% Triton X-100, 5 mM EDTA, 5 mM EGTA, 20 mM NaF, 20 mM Na4P2O7, 1 mM NaVO4, 1 mg/ml bacitracin, 1 mM phenylmethylsulfonylfluoride, 1 μg/ml leupeptin, 1 μg/ml aprotinin) was added to each tube or dish. Cells were scraped on ice into 1.5 ml conical screw cap Eppendorf tubes. Borosilicate tubes containing islets were vortexed for 30 sec and placed on ice for 30 min. Islet samples were vortexed for an additional minute before transfer to 1.5-ml conical screw cap Eppendorf tubes. All subsequent immunoprecipitation steps were performed at 4° C. Samples were centrifuged at 10,000×g for 15 min. The supernatant was transferred to a second 1.5-ml conical Eppendorf tube, and O-glycosylated proteins were immunoprecipitated for 2 h on a rocker with 2 μl of mouse monoclonal RL2 antibody, which selectively binds to O-glycosylated protein (21,22). After 2 h, 20 μl of protein A trisacryl beads (Pierce) preadsorbed with 20 μg of rabbit anti-mouse antibody (Sigma) were added to the tubes and the incubation was continued for an additional 2 hours. At the end of the incubation, beads were washed once with Wash Buffer 1 (150 mM NaCl, 10 mM HEPES, pH 7.40, 1% Triton X-100, and 0.1% SDS) and once with Wash Buffer 2 (10 mM HEPES, pH 7.40, 1% Triton X-100, and 0.1% SDS). After the final washing step, 25 μl of 2× sample buffer (100 mM Tris, pH 6.80, 4% SDS, 20% glycerol, and 20 μg/liter bromophenol blue) was added to each tube. Samples were vortexed for 30 sec, boiled for 5 min, and stored at −20° C. prior to subsequent analysis.
# Samples were loaded onto 7.5% SDS-polyacrylamide gels. Colored molecular weight markers (Amersham) were run on each gel. Proteins were separated for 1 h at 175 V at room temperature using a Bio-Rad Mini-PROTEAN II dual slab cell. […]
# [2] = tested on: RL2 antibody binding to p135; assay: Blocking of RL2 antibody immunoprecipitation of p135 by added sugars; set-up: species or system mouse; details: 0.3 M added during the RL2 immunoprecipitation step (FIG. 3)
# Method: Islets (100/condition) were incubated for 60 min with either 3 mM glucose (G3) or 28 mM glucose following pre-incubation with 5 mM streptozotocin (STZ). At the end of the incubation period, O-glycosylated proteins were immunoprecipitated with RL2 antibody in the presence of 0.3 M N-acetylglucosamine (GlcNAc), 0.3 M N-acetylgalactosamine (GalNAc), or 0.3 M glucosamine (GlcN) and analyzed by Western blotting as described in FIG. 1.
# At the end of the experiment, all supernatant was removed from the tubes or dishes. One ml of ice-cold lysis buffer (50 mM HEPES, pH 7.40, 150 mM NaCl, 1% Triton X-100, 5 mM EDTA, 5 mM EGTA, 20 mM NaF, 20 mM Na4P2O7, 1 mM NaVO4, 1 mg/ml bacitracin, 1 mM phenylmethylsulfonylfluoride, 1 μg/ml leupeptin, 1 μg/ml aprotinin) was added to each tube or dish. Cells were scraped on ice into 1.5 ml conical screw cap Eppendorf tubes. Borosilicate tubes containing islets were vortexed for 30 sec and placed on ice for 30 min. Islet samples were vortexed for an additional minute before transfer to 1.5-ml conical screw cap Eppendorf tubes. All subsequent immunoprecipitation steps were performed at 4° C. Samples were centrifuged at 10,000×g for 15 min. […]
structure (smiles),measurement,setting,value
CN(N=O)C(=O)N[C@H]1C(O)O[C@H](CO)[C@@H](O)[C@@H]1O (mixture of isomers) [streptozotocin],time to death of most of the β-cells,β-cells,≤ 8 h
same,O-glycosylation response of β-TC3 cells,β-TC3 cells,fail to undergo increased O-glycosylation
same,Insulin (secretion in isolated islets),"isolated islets; 5 mM, DON 0, 60 min, control 3 mM glucose = 100",147.1 ± 16.8%
same,Insulin (secretion in isolated islets),"isolated islets; 5 mM, DON 100 (μM), 60 min, control 3 mM glucose = 100",115.6 ± 7.8%
same,reversibility of p135 O-glycosylation,"[1]; 5 mM pre-incubation 30 min, then 3 or 28 mM glucose 30 min, then 3 mM glucose 30 min (FIG. 5)",not readily reversible
same,stimulation of p135 O-glycosylation in the presence of DON,"[1]; 5 mM with 100 μM DON, 60 min (FIG. 4)",able to increase p135 O-glycosylation
same,increase in p135 O-glycosylation,[1]; compared to 3 mM glucose control (FIG. 7 experiment),361.3±78.8%
same,increase in p135 O-glycosylation,[1]; versus 3 mM glucose control (FIG. 2),333.9±66.8%
same,stimulation of p135 O-glycosylation,"[1]; islets isolated in low glucose and no added L-glutamine, concentration not given",no consistent increase in p135 O-glycosylation
"CC(=O)N[C@H]1C(O)O[C@H](CO)[C@@H](O)[C@@H]1O (stereo partly drawn) [GlcNAc, N-acetylglucosamine]",inhibition of RL2 immunoprecipitation of p135,[2],completely inhibited
"[N-]=[N+]=CC(=O)CC[C@H](N)C(=O)O [DON, 6-diazo-5-oxonorleucine]",effect on glucose-induced insulin secretion,"isolated islets; 100 μM DON with 28 mM glucose, 60 min",no significant effect
same,Insulin (secretion in isolated islets),"isolated islets; DON 100 (μM) in 3 mM glucose, 60 min, control 3 mM glucose without DON = 100",160.6 ± 50.5%
same,effect on glucose-induced p135 O-glycosylation,[1]; 60 min (FIG. 4),inhibited
same,effect on glucose-induced p135 O-glycosylation,"[1]; 60 min (FIG. 4), listed as 5-diazo-oxo-norleucine",completely blocked
"CC(=O)N[C@H]1C(O)O[C@H](CO)[C@H](O)[C@@H]1O (stereo partly drawn) [GalNAc, N-acetylgalactosamine]",inhibition of RL2 immunoprecipitation of p135,[2],neither GalNAc nor glucosamine added at the same concentration as GlcNAc prevented
